Measurements as given in the PolyMetriX glass transition set.

Row | Compound | glass transition temperature [°C]
1 | *C(=O)N1C(=S)N(C(=O)c2ccc3c(c2)C(=O)N(c2ccc(Oc4ccc(N5C(=O)c6ccc(*)cc6C5=O)cc4)cc2)C3=O)C(C)=C(C(=O)OCC)C1c1ccccc1 (repeat unit) | 155.00
2 | *C(=O)c1ccc(C(C)(CC)c2ccc(C(=O)N3CCN(*)CC3)cc2)cc1 (repeat unit) | 232.00
3 | *C(=O)c1ccc(Oc2ccc(-c3ccc(Oc4ccc(C(=O)c5ccc6c(c5)C(=O)N(c5ccc(Oc7ccc(N8C(=O)c9ccc(*)cc9C8=O)cc7)cc5)C6=O)cc4)cc3)cc2)cc1 (repeat unit) | 233.00
4 | *C(=O)c1ccc(Oc2ccc(S(=O)(=O)c3ccc(Oc4ccc(C(=O)c5ccc6c(c5)C(=O)N(c5ccc(Oc7ccc(N8C(=O)c9ccc(*)cc9C8=O)cc7)cc5)C6=O)cc4)cc3)cc2)cc1 (repeat unit) | 241.00
5 | *C(=O)c1ccc2c(c1)C(=O)N(c1ccc(Oc3ccc(Oc4ccc(N5C(=O)c6ccc(*)cc6C5=O)cc4C(F)(F)F)cc3)cc1)C2=O (repeat unit) | 237.10
6 | *C(=O)c1ccc2c(c1)C(=O)N(c1ccc(Oc3cccc(-c4cc(-c5ccccc5)cc(-c5cccc(Oc6ccc(N7C(=O)c8ccc(*)cc8C7=O)cc6)c5)n4)c3)cc1)C2=O (repeat unit) | 260.00
7 | *C(=O)c1cccc(C(=O)c2ccc3c(c2)C(=O)N(c2ccc(Oc4ccc(S(=O)(=O)c5ccc(Oc6ccc(N7C(=O)c8ccc(*)cc8C7=O)cc6)cc5)cc4)cc2)C3=O)c1 (repeat unit) | 249.00
8 | *CCCCCCCN1C(=O)c2ccc(-c3ccc(-c4ccc5c(c4)C(=O)N(*)C5=O)cc3)cc2C1=O (repeat unit) | 135.00
9 | *CCCCOC(=O)c1ccc(C(C)(C)c2ccc(C(=O)O*)cc2)cc1 (repeat unit) | 44.00
10 | *CCCCOC(=O)c1ccc([Si](C)(C)c2ccc(C(=O)O*)cc2)cc1 (repeat unit) | 42.00
11 | *CCOC(=O)c1ccc(C(C)(CC)c2ccc(C(=O)O*)cc2)cc1 (repeat unit) | 95.00
12 | *Nc1ccc(-c2ccc(NC(=O)c3ccc(NC(=O)c4ccc([Si](C)(C)c5ccc(C(=O)Nc6ccc(C(*)=O)cc6)cc5)cc4)cc3)cc2)cc1 (repeat unit) | 320.00
13 | *Nc1ccc(C(c2ccc(NC(=O)c3ccc(-c4ccc(C(*)=O)c(C)c4)cc3C)cc2)(C(F)(F)F)C(F)(F)F)cc1 (repeat unit) | 289.00
14 | *Nc1ccc(NC(=O)c2ccc(NC(=O)c3ccc([Si](C)(C)c4ccc(C(=O)Nc5ccc(C(*)=O)cc5)cc4)cc3)cc2)cc1 (repeat unit) | 338.00
15 | *Nc1cccc(NC(=O)c2ccc(NC(=O)c3ccc([Si](C)(C)c4ccc(C(=O)Nc5ccc(C(*)=O)cc5)cc4)cc3)cc2)c1 (repeat unit) | 303.00
16 | *Oc1ccc(-c2ccc(OC(=O)c3cc(/N=N/c4ccc(OCC)cc4)ccc3-c3ccc(/N=N/c4ccc(OCC)cc4)cc3C(*)=O)cc2)cc1 (repeat unit) | 165.00
17 | *Oc1ccc(C(=O)c2ccc(OC(=O)c3ccc(C(C)(C)c4ccc(C(*)=O)cc4)cc3)cc2)cc1 (repeat unit) | 130.00

Row | Compound | glass transition temperature [°C]
18 | *Oc1ccc(C(C)(C)c2ccc(OC(=O)c3ccc(C(C)(CC)c4ccc(C(*)=O)cc4)cc3)cc2)cc1 (repeat unit) | 211.00
19 | *Oc1ccc(N(CC)c2ccc(/C=C(\C#N)C(=O)NC3CCCCC3NC(=O)/C(C#N)=C/c3ccc(N(CC)c4ccc(*)cc4)cc3)cc2)cc1 (repeat unit) | 235.00
20 | *Oc1ccc(NC(=O)c2ccc(-c3ccc(C(=O)Nc4ccc(Oc5ccc(C(C)(C)c6ccc(*)cc6)cc5)cc4)c(C)c3)cc2C)cc1 (repeat unit) | 230.00
21 | *c1ccc(-c2cc(C(C)(C)C)c(Oc3ccc(-n4c(=O)c5cc6c(=O)n(*)c(=O)c6cc5c4=O)cc3C(F)(F)F)c(C(C)(C)C)c2)cc1 (repeat unit) | 420.00
22 | *c1ccc(-c2cc(CCCCCCCC)c(-c3ccc(-c4sc(*)cc4CCCCCCCC)cc3)s2)cn1 (repeat unit) | 16.20
23 | *c1ccc(-c2ccc(-c3cc(CCCCCCCC)c(-c4ccc(-c5sc(*)cc5CCCCCCCC)cc4)s3)cc2)cc1 (repeat unit) | 0.60
24 | *c1ccc(-c2ccc([Si](*)(C)C)s2)s1 (repeat unit) | 45.00
25 | *c1ccc(-c2ccc([Si](CCCC)(CCCC)[Si](*)(CCCC)CCCC)s2)s1 (repeat unit) | -20.00
26 | *c1ccc(-c2nc3cc(-c4ccc5nc(-c6ccccc6)c(-c6ccc(-n7c(=O)c8cc9c(=O)n(*)c(=O)c9cc8c7=O)cc6)nc5c4)ccc3nc2-c2ccccc2)cc1 (repeat unit) | 217.00
27 | *c1ccc(-c2nc3cc(Oc4ccc5nc(-c6ccccc6)c(-c6ccc(-n7c(=O)c8cc9c(=O)n(*)c(=O)c9cc8c7=O)cc6)nc5c4)ccc3nc2-c2ccccc2)cc1 (repeat unit) | 274.00
28 | *c1ccc(-c2sc(-c3cc(CCCC)c(*)s3)cc2CCCC)cc1 (repeat unit) | 122.30
29 | *c1ccc(-c2sc(-c3cc(CCCCCCCCCCCC)c(*)s3)cc2CCCCCCCCCCCC)cc1 (repeat unit) | 59.60
30 | *c1ccc(-c2sc(-c3cc(SCCCCCCCCCCCC)c(*)s3)cc2SCCCCCCCCCCCC)cc1 (repeat unit) | 65.40
31 | *c1ccc(-c2sc(-c3ccc(-c4cc(CCCCCCCC)c(*)s4)cc3)cc2CCCCCCCC)cc1 (repeat unit) | -4.00
32 | *c1ccc(-c2sc(-c3ccc(-c4cc(CCCCCCCCCCCC)c(*)s4)cc3)cc2CCCCCCCCCCCC)cc1 (repeat unit) | -19.20
33 | *c1ccc(-c2sc(-c3ccc(-c4cc(SCCCCCCCC)c(*)s4)cc3)cc2SCCCCCCCC)cc1 (repeat unit) | -38.80
34 | *c1ccc(NC(=O)c2ccc(NC(=O)c3ccc([Si](C)(C)c4ccc(C(=O)Nc5ccc(C(=O)Nc6ccc(-c7sc(*)c(-c8ccccc8)c7-c7ccccc7)cc6)cc5)cc4)cc3)cc2)cc1 (repeat unit) | 337.00

Results, then the compound that gave them:

Row | glass transition temperature [°C] | Compound
35 | 297.00 | *C(=O)c1ccc(Oc2ccc(N3C(=O)c4ccc(*)cc4C3=O)cc2)cc1 (repeat unit)
36 | 280.50 | *C(=O)c1ccc2c(c1)C(=O)N(c1ccc(Oc3cccc(N4C(=O)c5ccc(*)cc5C4=O)c3)cc1)C2=O (repeat unit)
37 | 162.00 | *Oc1ccc(/N=C/c2ccc(N(c3ccccc3)c3ccc(/C=N/c4ccc(*)cc4)cc3)cc2)cc1 (repeat unit)
38 | 220.00 | *Oc1ccc(NC(=O)c2ccc([Si](C)(C)c3ccc(C(*)=O)cc3)cc2)cc1 (repeat unit)
39 | 213.00 | *Oc1cccc(Oc2ccc(NC(=O)c3ccc(-c4ccc(C(=O)Nc5ccc(*)cc5)c(C)c4)cc3C)cc2)c1 (repeat unit)
40 | 398.50 | *c1ccc(-c2cc(C(C)(C)C)c(Oc3ccc(-n4c(=O)c5cc6c(=O)n(*)c(=O)c6cc5c4=O)cc3)c(C(C)(C)C)c2)cc1 (repeat unit)
41 | 106.20 | *c1ccc(-c2ccc3c(c2)C(CCCCCC)(CCCCCC)c2cc(*)ccc2-3)cc1 (repeat unit)
42 | 122.00 | *c1ccc(-c2ccc3c(c2)C(CCCCCCBr)(CCCCCCBr)c2cc(*)ccc2-3)cc1 (repeat unit)
43 | 350.00 | *c1ccc(-c2cnc3cc(-c4ccc5nc(*)cnc5c4)ccc3n2)cc1 (repeat unit)
44 | 306.00 | *c1ccc(-c2cnc3cc(Oc4ccc5nc(*)cnc5c4)ccc3n2)cc1 (repeat unit)
45 | 376.00 | *c1ccc(-c2cnc3ccc(-c4ccc5nc(*)cnc5c4)cc3n2)cc1 (repeat unit)
46 | 376.00 | *c1ccc(-c2cnc3ccc(-c4ccc5ncc(*)nc5c4)cc3n2)cc1 (repeat unit)
47 | 306.00 | *c1ccc(-c2cnc3ccc(Oc4ccc5ncc(*)nc5c4)cc3n2)cc1 (repeat unit)
48 | 230.00 | *c1ccc(-c2nc3cc(-c4ccc5nc(-c6ccccc6)c(-c6ccc(N7C(=O)C8OC9C(=O)N(*)C(=O)C9C8C7=O)cc6)nc5c4)ccc3nc2-c2ccccc2)cc1 (repeat unit)
49 | 430.00 | *c1ccc(-c2nc3cc(-c4ccc5oc(*)nc5c4)ccc3o2)cc1 (repeat unit)
50 | 395.00 | *c1ccc(-c2nc3cc4nc(-c5ccccc5)c(*)nc4cc3nc2-c2ccccc2)cc1 (repeat unit)
51 | 229.00 | *c1ccc(-c2nc3ccccc3o2)c(*)c1 (repeat unit)
52 | 205.00 | *c1ccc(-c2nnc(*)o2)c(OCCCCC)c1 (repeat unit)
53 | 460.00 | *c1ccc(-c2sc(-c3ccc(-n4c(=O)c5cc6c(=O)n(*)c(=O)c6cc5c4=O)cc3)c(-c3ccccc3)c2-c2ccccc2)cc1 (repeat unit)
54 | 75.00 | *c1ccc(-n2ccc(-c3ccc(-c4ccn(*)n4)cc3)n2)cc1 (repeat unit)
55 | 345.00 | *c1ccc(C(c2ccc(-c3nc4ccc(-c5ccc6nc(*)oc6c5)cc4o3)cc2)(C(F)(F)F)C(F)(F)F)cc1 (repeat unit)
56 | 380.00 | *c1ccc(C2(c3ccc(-c4nnc(*)o4)cc3)OC(=O)c3ccccc32)cc1 (repeat unit)
57 | 163.00 | *c1ccc(N/C=N/c2ccc(S(*)(=O)=O)cc2)cc1 (repeat unit)
58 | 214.00 | *c1ccc(OC(=O)c2ccc([Si](C)(C)c3ccc(C(=O)Oc4ccc(C5(*)OC(=O)c6ccccc65)cc4)cc3)cc2)cc1 (repeat unit)
59 | 273.00 | *c1ccc([Si](c2ccccc2)(c2ccccc2)c2ccc(-c3nnc(-c4ccc(-c5nnc(*)o5)c5ccccc45)o3)cc2)cc1 (repeat unit)
60 | 336.00 | *c1ccc2oc(-c3ccc(C(c4ccc(-c5nc6cc(C(*)(C(F)(F)F)C(F)(F)F)ccc6o5)cc4)(C(F)(F)F)C(F)(F)F)cc3)nc2c1 (repeat unit)
